The results in this text go back to ChEMBL document CHEMBL2177100, “Structural optimization and structure-activity relationships of N2-(4-(4-Methylpiperazin-1-yl)phenyl)-N8-phenyl-9H-purine-2,8-diamine derivatives, a new class of reversible kinase inhibitors targeting both EGFR-activating and resistance mutations” (J Med Chem, 2012).

pIC50: −log10 of the molar value. Calls of active or inactive are those of the source. No cut-off for these calls is given here. Some results are limits rather than exact numbers.

One may read the pIC50 as the negative decadic logarithm of the IC50, by convention in mol/L. A higher pIC50 goes with a small IC50.

One data set deals with PC-9. Nature of the data set: Cytotoxicity against human PC9 cells incubated for 72 hrs by MTT assay. Type of data set: functional, cell-based. Conditions: PC-9, 72 h.
The subject of a further data set is HCC827. Nature of the data set: Antitumor activity against human HCC827 cells xenografted in BALB/c mouse assessed as reduction tumor volume at 100 mg/kg, po qd. More on the design: dose 100 mg/kg. Type of data set: functional, organism-based. (In general: Xenograft models place foreign cells or tissue in a host animal.)
The subject of a further data set is HepG2. Nature of the data set: Cytotoxicity against human HepG2 cells incubated for 72 hrs by MTT assay. Type of data set: functional, cell-based. Conditions: HepG2, 72 h. On the technique in general: Formazan colour is commonly taken as a measure of viable cells.
The test system of data set [1] is NCI-H1975. Nature of the data set: Cytotoxicity against human NCI-H1975 cells incubated for 72 hrs by MTT assay. The conditions noted are these: NCI-H1975, 72 h. Type of data set: functional, cell-based.
Data set [2] in a line: Cytotoxicity against human HCC827 cells incubated for 72 hrs by MTT assay. Type of data set: functional, cell-based. The conditions noted are these: HCC827, 72 h.
The next data set deals with Mus musculus. Nature of the data set: Toxicity in human NCI-H1975 cells xenografted BALB/c mouse assessed as body weight loss at 20 mg/kg, po qd. Type of data set: organism-based. More on the design: dose 20 mg/kg, route oral. The conditions noted are these: in vivo.
Data set [3] relates to NCI-H1975. Nature of the data set: Antitumor activity against human NCI-H1975 cells xenografted in BALB/c mouse assessed as inhibition of tumor growth at 20 mg/kg, po qd. Conditions: read-out: TGI. Type of data set: functional.
Data set [4] addresses Epidermal growth factor receptor (Homo sapiens, UniProt P00533, L858R/T790M). Nature of the data set: Inhibition of EGFR L858R/T790M mutant. Type of data set: protein assay.
The target of data set [5] is Epidermal growth factor receptor (Homo sapiens, UniProt P00533, L858R). Nature of the data set: Inhibition of EGFR L858R mutant. Type of data set: protein assay.
Epidermal growth factor receptor (Homo sapiens, UniProt P00533, L858R), sequence (P00533 25-1210 L858R limits assumed): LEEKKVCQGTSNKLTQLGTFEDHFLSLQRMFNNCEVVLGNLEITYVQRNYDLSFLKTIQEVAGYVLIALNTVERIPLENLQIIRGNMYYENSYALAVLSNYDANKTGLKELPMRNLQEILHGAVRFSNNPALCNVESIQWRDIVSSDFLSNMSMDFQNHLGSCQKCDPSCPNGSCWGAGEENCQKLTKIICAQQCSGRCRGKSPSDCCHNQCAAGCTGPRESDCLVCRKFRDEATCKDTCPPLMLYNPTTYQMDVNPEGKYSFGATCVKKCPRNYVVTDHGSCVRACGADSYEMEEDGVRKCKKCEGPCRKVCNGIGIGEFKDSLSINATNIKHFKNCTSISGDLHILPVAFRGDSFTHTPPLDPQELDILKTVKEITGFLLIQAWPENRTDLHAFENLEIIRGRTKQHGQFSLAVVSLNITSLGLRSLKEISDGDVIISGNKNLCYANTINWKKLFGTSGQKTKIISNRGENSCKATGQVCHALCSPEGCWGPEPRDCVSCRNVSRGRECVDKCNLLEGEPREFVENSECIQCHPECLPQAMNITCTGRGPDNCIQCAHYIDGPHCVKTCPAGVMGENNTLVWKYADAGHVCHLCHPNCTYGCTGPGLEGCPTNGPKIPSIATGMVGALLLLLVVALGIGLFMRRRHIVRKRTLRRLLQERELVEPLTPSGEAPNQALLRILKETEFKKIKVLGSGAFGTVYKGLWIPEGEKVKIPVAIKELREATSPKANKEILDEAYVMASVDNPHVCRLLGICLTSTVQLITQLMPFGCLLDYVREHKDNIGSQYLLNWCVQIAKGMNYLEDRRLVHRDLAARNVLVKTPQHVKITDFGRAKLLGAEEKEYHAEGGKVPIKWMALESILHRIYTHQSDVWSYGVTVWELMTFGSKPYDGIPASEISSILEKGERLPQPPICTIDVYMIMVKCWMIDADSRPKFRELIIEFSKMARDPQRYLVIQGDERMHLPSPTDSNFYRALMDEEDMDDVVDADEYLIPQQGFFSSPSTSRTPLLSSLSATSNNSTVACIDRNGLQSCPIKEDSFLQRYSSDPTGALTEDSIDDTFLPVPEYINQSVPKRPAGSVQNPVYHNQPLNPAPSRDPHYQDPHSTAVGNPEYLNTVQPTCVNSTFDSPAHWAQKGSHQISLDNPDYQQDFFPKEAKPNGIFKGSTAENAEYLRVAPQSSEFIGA

Epidermal growth factor receptor (Homo sapiens, UniProt P00533, L858R/T790M), sequence (P00533 25-1210 T790M/L858R limits assumed): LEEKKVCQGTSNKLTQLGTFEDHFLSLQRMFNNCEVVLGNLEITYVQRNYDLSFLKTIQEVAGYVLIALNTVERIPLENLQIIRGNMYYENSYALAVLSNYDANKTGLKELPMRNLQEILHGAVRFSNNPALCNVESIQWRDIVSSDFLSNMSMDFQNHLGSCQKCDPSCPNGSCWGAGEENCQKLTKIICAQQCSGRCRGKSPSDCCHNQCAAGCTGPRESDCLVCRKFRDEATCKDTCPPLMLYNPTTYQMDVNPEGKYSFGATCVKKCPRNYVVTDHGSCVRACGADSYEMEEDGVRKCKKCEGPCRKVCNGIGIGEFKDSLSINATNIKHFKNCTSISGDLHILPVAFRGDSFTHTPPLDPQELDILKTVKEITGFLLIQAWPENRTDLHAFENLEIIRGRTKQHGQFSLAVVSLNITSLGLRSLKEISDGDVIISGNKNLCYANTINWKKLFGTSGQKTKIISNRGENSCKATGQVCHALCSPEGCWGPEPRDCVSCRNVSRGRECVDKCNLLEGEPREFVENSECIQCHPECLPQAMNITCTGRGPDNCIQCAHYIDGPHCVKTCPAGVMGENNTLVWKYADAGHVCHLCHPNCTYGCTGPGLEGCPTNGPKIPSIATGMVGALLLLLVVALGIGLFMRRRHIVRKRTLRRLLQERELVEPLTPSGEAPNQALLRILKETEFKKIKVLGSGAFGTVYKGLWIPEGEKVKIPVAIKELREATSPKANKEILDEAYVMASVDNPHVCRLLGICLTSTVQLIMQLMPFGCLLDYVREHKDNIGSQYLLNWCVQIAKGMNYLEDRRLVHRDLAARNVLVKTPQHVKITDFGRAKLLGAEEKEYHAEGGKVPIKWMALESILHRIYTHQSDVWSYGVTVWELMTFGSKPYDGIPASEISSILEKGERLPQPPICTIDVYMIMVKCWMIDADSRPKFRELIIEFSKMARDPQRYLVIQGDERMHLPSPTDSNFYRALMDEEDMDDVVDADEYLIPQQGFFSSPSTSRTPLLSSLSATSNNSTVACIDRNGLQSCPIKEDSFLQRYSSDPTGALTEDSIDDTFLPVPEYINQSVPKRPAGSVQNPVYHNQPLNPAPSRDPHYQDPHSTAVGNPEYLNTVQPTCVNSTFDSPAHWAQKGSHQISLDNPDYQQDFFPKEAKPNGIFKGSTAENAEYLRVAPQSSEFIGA

In the data set on PC-9, `COc1cc2ncnc(Nc3ccc(F)c(Cl)c3)c2cc1OCCCN1CCOCC1` [GEFITINIB] gave a pIC50 of 7.85. Also, the TGI result in the data set with HCC827 was “Active”.

Take `OCCNc1ccc(Nc2ncc3nc(Nc4ccccc4)n(C4CCCC4)c3n2)cc1`: the negative logarithm of the IC50 (pIC50) in the data set on HepG2 was below 5.30; in the data set on NCI-H1975 [1], 5.55; in [2], 8.55.

Turning to `CN1CCN(c2ccc(Nc3ncc4nc(Nc5ccccc5)n(C)c4n3)cc2)CC1`, the pIC50 in the data set on HepG2 is below 5.30; with NCI-H1975 [1] it was 5.22; in [2], 7.62.

With `CN1CCN(c2ccc(Nc3ncc4nc(Nc5cc(Cl)ccc5Cl)n(C5CCCC5)c4n3)cc2)CC1`, the figures for the pIC50 (in the data set on HepG2; in the data set with NCI-H1975 [1]; in [2]) were below 5.30, 5.60 and 11.00, respectively.

As to `CN1CCN(c2ccc(Nc3ncc4nc(Nc5ccccc5)n(C5CCCCC5)c4n3)cc2)CC1`, the results for the pIC50 (with HepG2; in the data set on NCI-H1975 [1]; in data set [2]) were below 5.30, 6.41 and above 11.00, respectively.

On to `C#Cc1cccc(Nc2nc3cnc(Nc4ccc(N5CCN(C)CC5)cc4)nc3n2C2CCCC2)c1`, for which the pIC50 is 5.31 in the data set with HepG2, 6.19 in the data set on NCI-H1975 [1] and above 11.00 in [2].

In the case of `CN1CCN(c2ccc(Nc3ncc4nc(Nc5ccccc5)n(C5CC5)c4n3)cc2)CC1`, the pIC50 is below 5.30 with HepG2, 5.54 with NCI-H1975 [1] and 7.74 in data set [2].

For `CN1CCN(c2ccc(Nc3ncc4nc(Nc5cccc(NC(=O)c6ccccc6)c5)n(C5CCCC5)c4n3)cc2)CC1`, the pIC50 in the data set on HepG2 is 5.59; in the data set with NCI-H1975 [1], 5.67; in data set [2], 7.82.

Take `CN1CCN(c2ccc(Nc3ncc4nc(Nc5ccc(Br)cc5)n(C5CCCC5)c4n3)cc2)CC1`: the values for the pIC50 (in the data set with HepG2; with NCI-H1975 [1]; in [2]) were below 5.30, 5.68 and 8.66, respectively.

As for `Cc1cccc(Nc2nc3cnc(Nc4ccc(N5CCN(C)CC5)cc4)nc3n2C2CCCC2)c1`, the pIC50 was 5.33 in the data set on HepG2, 6.25 in the data set with NCI-H1975 [1] and above 11.00 in data set [2].

With `CC1CCN(c2ccc(Nc3ncc4nc(Nc5ccccc5)n(C5CCCC5)c4n3)cc2)CC1`, the pIC50 in the data set with HepG2 was below 5.30; with NCI-H1975 [1] it was 5.01; in [2], 7.49.

For the compound `c1ccc(Nc2ncc3nc(Nc4ccccc4)n(C4CCCC4)c3n2)cc1`, the figures for the pIC50 (in the data set with HepG2; in the data set on NCI-H1975 [1]; in data set [2]) were below 5.30, below 5.00 and 8.57, respectively.

As to `CN1CCN(c2ccc(Nc3ncc4nc(Nc5cccc(C(=O)Nc6ccc(Cl)cc6)c5)n(C5CCCC5)c4n3)cc2)CC1`, the pIC50 with HepG2 is below 5.30; with NCI-H1975 [1], 5.40; in data set [2] it was 5.54.

In the case of `CN1CCN(c2ccc(Nc3ncc4nc(Nc5cccc(O)c5)n(C5CCCC5)c4n3)cc2)CC1`, the pIC50 was 5.38 with HepG2, 5.99 with NCI-H1975 [1] and 9.14 in data set [2].

Take `c1ccc(Nc2nc3cnc(Nc4ccc(N5CCOCC5)cc4)nc3n2C2CCCC2)cc1`: the pIC50 was below 5.30 in the data set on HepG2, 5.04 in the data set with NCI-H1975 [1] and 9.18 in data set [2].

Turning to `CC(C)n1c(Nc2ccccc2)nc2cnc(Nc3ccc(N4CCN(C)CC4)cc3)nc21`, the pIC50 in the data set on HepG2 was below 5.30; in the data set with NCI-H1975 [1] it was 6.02; in data set [2] it was 10.00.

Regarding `CN(C)C/C=C/C(=O)Nc1cc2c(Nc3ccc(F)c(Cl)c3)ncnc2cc1O[C@H]1CCOC1` [AFATINIB], the Activity in the data set with Mus musculus is 6.6%. For the same compound, the inhibition in vivo at 20 mg/kg with NCI-H1975 [3] was 74%.

On to `Cc1cc(C)cc(-n2c(Nc3ccccc3)nc3cnc(Nc4ccc(N5CCN(C)CC5)cc4)nc32)c1`, for which the pIC50 in the data set with HepG2 is below 5.30; in the data set on NCI-H1975 [1], 5.72; in [2], 9.00.

In the case of `CN1CCN(c2ccc(Nc3ncc4nc(Nc5ccccc5)n(-c5ccccc5)c4n3)cc2)CC1`, the pIC50 with HepG2 is below 5.30; with NCI-H1975 [1] it was 5.74; in [2] it was 8.77.

Take `CN1CCN(c2ccc(Nc3ncc4nc(Nc5ccccc5)[nH]c4n3)cc2)CC1`: the pIC50 in the data set with HepG2 was below 5.30; in the data set on NCI-H1975 [1], 4.74; in [4], 6.01; in [2], 6.63; in [5], 7.01.

On to `CN1CCN(c2ccc(Nc3ncc4nc(Nc5cccc([N+](=O)[O-])c5)n(C5CCCC5)c4n3)cc2)CC1`, for which the pIC50 is below 5.30 in the data set with HepG2, 6.01 with NCI-H1975 [1] and above 11.00 in [2].

In the case of `CC(=O)Nc1ccc(Nc2ncc3nc(Nc4ccccc4)n(C4CCCC4)c3n2)cc1`, the pIC50 is below 5.30 in the data set with HepG2, 5.92 in the data set with NCI-H1975 [1] and 9.33 in data set [2].

As to `CN1CCN(c2ccc(Nc3ncc4nc(Nc5ccc(Br)cc5F)n(C5CCCC5)c4n3)cc2)CC1`, the pIC50 was below 5.30 in the data set with HepG2, 5.95 in the data set with NCI-H1975 [1] and 8.64 in data set [2].

Turning to `CN1CCN(c2ccc(Nc3ncc4nc(Nc5cccc(Cl)c5)n(C5CCCC5)c4n3)cc2)CC1`, the pIC50 in the data set with HepG2 was 5.32; in the data set on NCI-H1975 [1], 6.41; in data set [2] it was above 11.00.
